Source: article PMC6367362, “MD001, a Novel Peroxisome Proliferator-activated Receptor α/γ Agonist, Improves Glucose and Lipid Metabolism” (Scientific Reports, 2019)

Assays:
[1] = tested on: HepG2 cells; assay: Fatty acid oxidation assay ([3H]palmitate), HepG2; assay type: cell-based, human; settings: 10 μM, 24 h
Protocol: Figure 4 MD001 stimulates fatty acid oxidation in vitro. HepG2 (A), differentiated 3T3-L1 adipocyte (B), and differentiated C2C12 myotubes (C) were treated with vehicle or MD001 (10 μM) for 24 h and total RNA was isolated for cDNA synthesis. Relative gene expressions were analysed by qRT-PCR. HepG2 (D), differentiated 3T3-L1 adipocytes (E), and differentiated C2C12 myotubes (F) were treated with vehicle, MD001 (10 μM), or WY14643 (WY) (10 μM) for 24 h and the fatty acid oxidation rate was analysed as described in the Methods section. To confirm whether the fatty acid oxidation rate enhanced by MD001 is mediated by PPARα, HepG2 (G), differentiated 3T3-L1 (H), and differentiated C2C12 myotubes (I) were transfected with control or PPARα siRNA (20 nM) for 48 h, followed by treatment with vehicle, MD001 (10 μM), or WY14643 (WY) (10 μM) for 24 h. […]
For the fatty acid oxidation assay, cells were incubated in α-MEM (HyClone Laboratories, Inc., Logan, UT, USA) containing 0.1 mM palmitate (9,10-[^3H]palmitate, 5 μci/mL) (PerkinElmer, Waltham, MA, USA) and 1% bovine serum albumin for 24 h. […] After incubation, the vial was removed and radioactivity (^3H2O in water) was quantified using a liquid scintillation counter (LKB Instruments, Victoria, Australia).

[2] = tested on: HepG2 cells; assay: qRT-PCR gene expression in HepG2 cells; assay type: cell-based, human; settings: 24 h
Protocol: Figure 2 MD001 induces the expression of target genes through PPARα and PPARγ activation. HEK293 cells were transiently co-transfected with human HA-PPARα (A) and HA-PPARγ (B) expression vectors along with the reporter plasmid (PPRE-pk-Luc) or control reporter plasmid (pk-Luc) with Renilla vector for 24 h. Cells were treated with MD001 (10 μM), rosiglitazone (rosi) (10 μM) or WY14643 (WY) (10 μM) for 24 h. Luciferase activity was normalised to Renilla luciferase activity as described in the Methods section. **, vs. vehicle. (C) HepG2 cells were treated with MD001 (10 μM) for 24 h, and total RNA was isolated and synthesised into cDNA. Relative expression was quantitated using qRT-PCR. **, vs. vehicle. (D,E) HepG2 cells were transfected with control siRNA, PPARα siRNA (D), or PPARγ siRNA (E) for 48 h and treated with vehicle, WY14643 (10 μM), rosiglitazone (10 μM) or MD001 (10 μM) for 24 h. Subsequently, cells were harvested for total RNA isolation. Relative expression of target genes was quantitated using qRT-PCR. ^#, vs. control siRNA; ^‡, vs. control siRNA/vehicle; ^§, vs. control siRNA/WY; * and **, vs. control siRNA/MD001. Data represent the mean ± SD of three independent experiments. *P < 0.05, **P < 0.01, ^#P < 0.01, ^‡P < 0.01, and ^§P < 0.01.
Figure 3 MD001 promotes glucose consumption by induction of GLUT expression. HepG2 (A), differentiated 3T3-L1 adipocytes (B), and differentiated C2C12 myotubes (C) were treated with vehicle, MD001 (10, 50 μM), or rosiglitazone (rosi, 10 μM) for 24 h; glucose consumption was examined as described in the Methods section. Cells were harvested for total RNA isolation. Relative expression levels of GLUT2 (D) and GLUT4 (E,F) were quantitated using qRT-PCR. *, **, and ^† vs. vehicle. Data represent the mean ± SD of three independent experiments. *P < 0.05, **P < 0.01, and ^†P < 0.01.
Figure 4 MD001 stimulates fatty acid oxidation in vitro. HepG2 (A), differentiated 3T3-L1 adipocyte (B), and differentiated C2C12 myotubes (C) were treated with vehicle or MD001 (10 μM) for 24 h and total RNA was isolated for cDNA synthesis. Relative gene expressions were analysed by qRT-PCR. HepG2 (D), differentiated 3T3-L1 adipocytes (E), and differentiated C2C12 myotubes (F) were treated with vehicle, MD001 (10 μM), or WY14643 (WY) (10 μM) for 24 h and the fatty acid oxidation rate was analysed as described in the Methods section. To confirm whether the fatty acid oxidation rate enhanced by MD001 is mediated by PPARα, HepG2 (G), differentiated 3T3-L1 (H), and differentiated C2C12 myotubes (I) were transfected with control or PPARα siRNA (20 nM) for 48 h, followed by treatment with vehicle, MD001 (10 μM), or WY14643 (WY) (10 μM) for 24 h. WY14643 was treated as positive control. *, **, vs. vehicle; ^† and ^‡, vs. vehicle/control siRNA; ^§, vs. WY/control siRNA; ^¶, vs. MD001/control siRNA. Data represent the mean ± SD of three independent experiments. *P < 0.05, **P < 0.01, ^†P < 0.01, ^‡P < 0.05, ^§P < 0.01, and ^¶P < 0.05.
Total RNA was isolated using an RNeasy kit (Qiagen, Germantown, MD, USA) according to the manufacturer’s instructions. Complementary DNA (cDNA) was synthesised by reverse transcription using 0.5 μg of total RNA, and quantitative RT-PCR was performed using Power SYBR Green PCR Master Mix (ABI Thermo Fisher Scientific, Foster City, CA, USA) on a StepOne 48-well real-time PCR system (ABI/Thermo Fisher Scientific). GAPDH was used as an endogenous control. Primer sequences are summarized in Supplementary Table S1.

[3] = molecular target: T1, PPARα (Homo sapiens, UniProt Q07869); assay: SPR analysis of binding to immobilised HA-PPARα; settings: MD001 31.25-500 μM
T1 construct: HA; made in house
T1 sequence (Q07869 1-468): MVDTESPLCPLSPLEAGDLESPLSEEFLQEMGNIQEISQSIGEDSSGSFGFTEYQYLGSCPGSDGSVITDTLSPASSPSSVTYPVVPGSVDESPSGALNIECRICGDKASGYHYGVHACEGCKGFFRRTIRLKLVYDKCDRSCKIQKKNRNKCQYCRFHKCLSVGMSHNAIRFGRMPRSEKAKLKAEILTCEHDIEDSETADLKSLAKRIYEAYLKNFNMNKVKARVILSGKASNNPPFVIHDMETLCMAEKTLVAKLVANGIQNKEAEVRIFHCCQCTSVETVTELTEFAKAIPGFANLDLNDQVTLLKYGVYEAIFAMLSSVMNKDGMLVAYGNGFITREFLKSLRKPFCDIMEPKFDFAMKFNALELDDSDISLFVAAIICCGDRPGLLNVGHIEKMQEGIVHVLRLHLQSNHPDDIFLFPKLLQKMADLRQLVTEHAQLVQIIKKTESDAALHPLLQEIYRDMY
Protocol: SPR analysis was performed using a Reichert SR7500DC (Reichert Technologies, Depew, NY, USA). HA-PPARα, HA-PPARβ/δ, and HA-PPARγ were purified as previously described[23] and was immobilised on CMDH chips (Reichert Technologies) according to the manufacturer’s instructions. MD001 was loaded in a dose-dependent manner (31.25, 62.5, 125, 250, and 500 μM) for the SPR assay. The dissociation constant (KD) value was determined using the Scrubber2 program (Informer Technologies, Inc., Los Angeles, CA, USA).

Which results are given for `Cc1c(O)cc(O)c2c(-c3ccccc3)c(C(=O)/C=C/c3ccccc3)c(=O)oc12` [MD001]?
β-oxidation rate (fatty acid oxidation) [1]: significantly increased; expression of PPARα target genes ACOX, CPT, mCAD ([2]; HepG2, control siRNA, 10 μM): significantly increased; expression of PPARγ target genes GK, CD36, FABP1 ([2]; HepG2, control siRNA, 10 μM): significantly increased; expression levels of ACOX, CPT, MLYCD, and FATP ([2]; HepG2, 10 μM): significantly increased; expression of PPARα, PPARγ, and RXR genes ([2]; HepG2, 10 μM): significantly increased; expression of glucose transporter GLUT2 ([2]; HepG2, 10, 50 μM): significantly increased; Kd [3]: 9.55 ± 0.8 µM
